Patent US11603377B2, “MTORC1 modulators and uses thereof” (Aeovian Pharmaceuticals, Inc., priority 2020, dated 2023)
pIC50, pKd: −log10 of the molar value.

Experiments:
FKBP12 = FKBP12 (Homo sapiens (Human), UniProt P62942); assay: SPR assay to determine binding affinity to FKBP12 (direct binding); details: immobilized biotinylated avi-FKBP12
FKBP51 = FKBP51 (Homo sapiens (Human), UniProt Q13451); assay: SPR assay to determine binding affinity to FKBP51 (direct binding); details: immobilized biotinylated avi-FKBP51
Method in brief: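 Biotinylated avi-FKBP51 captured on streptavidin chip to about 2000 RU. Compounds injected at 0.5-1000 nM (8 points, 3-fold) for 120 s contact and 3600 s dissociation in 50 mM HEPES pH 7.5, 150 mM NaCl, 2 mM MgCl2, 1 mM DTT, 0.05% Tween-20, 1% DMSO.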

[1] = biological target: FKBP12 / FRB ternary complex (Homo sapiens (Human), UniProt P42345+P62942); assay: SPR assay to characterize ternary complex formation with FKBP12 (FRB binding to rapalog-saturated FKBP12); details: FRB dilutions with 100 nM rapalog on immobilized FKBP12
Method in brief: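 Biotinylated avi-FKBP12 immobilized (~100 RU) on streptavidin chip; A-B-A injections kept FKBP12 saturated with 100 nM rapalog while FRB (0.00011–20 μM, 3-fold, 12 points) was injected 120 s.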

[2] = biological target: FKBP51 / FRB ternary complex (Homo sapiens (Human), UniProt P42345+Q13451); assay: SPR assay to characterize ternary complex formation with FKBP51 (FRB binding to rapalog-saturated FKBP51); details: FRB dilutions with 100 nM rapalog on immobilized FKBP51
Method in brief: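 SPR with biotinylated avi-FKBP51 on streptavidin chip (~200 RU); FRB (0.00011-20 μM, 3-fold series) injected with 100 nM rapalog, A-B-A mode keeping FKBP saturated with rapalog.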

mTORC1 = mTORC1 (Homo sapiens (Human), UniProt P42345+P62942); assay: mTORC1 inhibition, AlphaLISA of Phospho-p70 S6 kinase (p70S6K pT389) in PC-3 cells; assay type: cell-based; details: inhibition of p70S6K pT389 levels
mTORC2 = mTORC2 (Homo sapiens (Human), UniProt P42345+P62942); assay: mTORC2 inhibition, AlphaLISA of Phospho-AKT (pAKT pS473) in PC3 cells; assay type: cell-based

FKBP12, sequence (P62942 whole entry): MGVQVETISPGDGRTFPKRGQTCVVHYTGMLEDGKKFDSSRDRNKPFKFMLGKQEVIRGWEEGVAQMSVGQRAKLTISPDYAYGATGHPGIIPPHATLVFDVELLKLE
FKBP51, sequence (Q13451 whole entry): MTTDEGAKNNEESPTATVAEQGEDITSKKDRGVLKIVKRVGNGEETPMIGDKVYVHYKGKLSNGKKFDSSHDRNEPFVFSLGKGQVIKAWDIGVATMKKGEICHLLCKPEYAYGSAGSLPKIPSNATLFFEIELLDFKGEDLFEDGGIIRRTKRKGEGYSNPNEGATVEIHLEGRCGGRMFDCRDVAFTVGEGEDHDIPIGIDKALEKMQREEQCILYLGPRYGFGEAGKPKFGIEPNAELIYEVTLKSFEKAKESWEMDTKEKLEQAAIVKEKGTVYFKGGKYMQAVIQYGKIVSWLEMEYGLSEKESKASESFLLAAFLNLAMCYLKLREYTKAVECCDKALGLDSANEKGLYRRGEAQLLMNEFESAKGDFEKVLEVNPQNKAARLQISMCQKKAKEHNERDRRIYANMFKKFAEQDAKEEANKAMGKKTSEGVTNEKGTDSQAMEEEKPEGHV

SMILES	pKd (FKBP12)	pKd (FKBP51)	pKd [1]	pKd [2]	pIC50 (mTORC1)	mTORC2 % inhibition at 1 uM (mTORC2)
CO[C@@H]1C[C@H](C[C@@H](C)[C@@H]2CC(=O)[C@H](C)/C=C(\C)[C@@H](O)[C@@H](OC)C(=O)[C@H](C)C[C@H](C)/C=C/C=C/C=C(\C)[C@@H](OCCCO)C[C@@H]3CC[C@@H](C)[C@@](O)(O3)C(=O)C(=O)N3CCCC[C@H]3C(=O)O2)CC[C@H]1OCCCS(C)(=O)=O [Compound 68]	> 9.52	7.00 to 8.00	> 6.52	< 6.10	> 10.00	C (C≥40% and less than 60% inhibition at 1 uM)
CO[C@@H]1C[C@H](C[C@@H](C)[C@@H]2CC(=O)[C@H](C)/C=C(\C)[C@@H](O)[C@@H](OC)C(=O)[C@H](C)C[C@H](C)/C=C/C=C/C=C(\C)[C@@H](OCCC3CCS(=O)(=O)C3)C[C@@H]3CC[C@@H](C)[C@@](O)(O3)C(=O)C(=O)N3CCCC[C@H]3C(=O)O2)CC[C@H]1O (stereo partly drawn) [Compound 27]	> 9.52	7.00 to 8.00	< 6.10	< 6.10	< 9.10	A (A ≤20% inhibition at 1 micro Molar (uM))
COCCOCCS(=O)(=O)NC1CC2CCC(C)C(O)(O2)C(=O)C(=O)N2CCCCC2C(=O)OC(C(C)CC2CCC(OCCCO)C(OC)C2)CC(=O)C(C)C=C(C)C(O)C(OC)C(=O)C(C)CC(C)C=CC=CC=C1C (stereo not drawn) [Compound 3]	9.00 to 9.52	< 7.00	< 6.10	< 6.10	< 9.10	A (A ≤20% inhibition at 1 micro Molar (uM))
COC1CC(CC(C)C2CC(=O)C(C)C=C(C)C(O)C(OC)C(=O)C(C)CC(C)C=CC=CC=C(C)C(OCCC3COC3)CC3CCC(C)C(O)(O3)C(=O)C(=O)N3CCCCC3C(=O)O2)CCC1OCCO (stereo not drawn) [Compound 38]	9.00 to 9.52	7.00 to 8.00	< 6.10	< 6.10	9.10 to 10.00	A (A ≤20% inhibition at 1 micro Molar (uM))
COC1C[C@H]2CC[C@H](C)[C@](O)(O2)C(=O)C(=O)N(C)C(C)C(=O)OC([C@H](C)C[C@@H]2CC[C@@H](OCCCS(C)(=O)=O)[C@H](OC)C2)CC(=O)C(C)/C=C(\C)C(O)C(OC)C(=O)C(C)CC/C=C/C=C/C=C/1C (stereo partly drawn) [Compound 59]	> 9.52	7.00 to 8.00	> 6.52	6.10 to 6.52	> 10.00	D (D≥60% inhibition at 1 uM)
CO[C@@H]1C[C@H](C[C@@H](C)[C@@H]2CC(=O)[C@H](C)/C=C(\C)[C@@H](O)[C@@H](OC)C(=O)[C@H](C)C[C@H](C)/C=C/C=C/C=C(\C)[C@@H](OCCC3COC3)C[C@@H]3CC[C@@H](C)[C@@](O)(O3)C(=O)C(=O)N3CCCC[C@H]3C(=O)O2)CC[C@H]1O [Compound 34]	> 9.52	7.00 to 8.00	< 6.10	< 6.10	< 9.10	A (A ≤20% inhibition at 1 micro Molar (uM))
COC1CC(CC(C)C2CC(=O)C(C)C=C(C)C(O)C(OC)C(=O)C(C)CC(C)C=CC=CC=C(C)C(OC3CC3)CC3CCC(C)C(O)(O3)C(=O)C(=O)N3CCCCC3C(=O)O2)CCC1OCCO (stereo not drawn) [Compound 46]	< 9.00	< 7.00	6.10 to 6.52	6.10 to 6.52	9.10 to 10.00	B (B>20% and less than 40% inhibition at 1 uM)
COC1CC(CC(C)C2CC(=O)C(C)C=C(C)C(O)C(OC)C(=O)C(C)CC(C)C=CC=CC=C(C)C(OCC3CC(F)(F)C3)CC3CCC(C)C(O)(O3)C(=O)C(=O)N3CCCCC3C(=O)O2)CCC1O (stereo not drawn) [Compound 41]	9.00 to 9.52	< 7.00	< 6.10	< 6.10	< 9.10	A (A ≤20% inhibition at 1 micro Molar (uM))
COCCOCCOC1CC2CCC(C)C(O)(O2)C(=O)C(=O)N2CCCCC2C(=O)OC(C(C)CC2CCC(OCCCS(C)(=O)=O)C(OC)C2)CC(=O)C(C)C=C(C)C(O)C(OC)C(=O)C(C)CC(C)C=CC=CC=C1C (mixture of isomers) [Compound 65]	> 9.52	7.00 to 8.00	6.10 to 6.52	< 6.10	9.10 to 10.00	A (A ≤20% inhibition at 1 micro Molar (uM))
COC1C(=O)C(C)CC/C=C/C=C/C=C(\C)C(CCO)C[C@H]2CC[C@H](C)[C@](O)(O2)C(=O)C(=O)N(C)C(C)C(=O)OC([C@H](C)C[C@@H]2CC[C@@H](OCCCS(C)(=O)=O)[C@H](OC)C2)CC(=O)C(C)/C=C(\C)C1O (stereo partly drawn) [Compound 67]	> 9.52	7.00 to 8.00	6.10 to 6.52	< 6.10	9.10 to 10.00	B (B>20% and less than 40% inhibition at 1 uM)
CCOC(=O)COC1CCC(CC(C)C2CC(=O)C(C)C=C(C)C(O)C(OC)C(=O)C(C)CC(C)C=CC=CC=C(C)C(OCC3CC3)CC3CCC(C)C(O)(O3)C(=O)C(=O)N3CCCCC3C(=O)O2)CC1OC (stereo not drawn) [Compound 51]	< 9.00	< 7.00	6.10 to 6.52	< 6.10	< 9.10	A (A ≤20% inhibition at 1 micro Molar (uM))
COC1CC(CC(C)C2CC(=O)C(C)C=C(C)C(O)C(OC)C(=O)C(C)CC(C)C=CC=CC=C(C)C(OC3CCOC3)CC3CCC(C)C(O)(O3)C(=O)C(=O)N3CCCCC3C(=O)O2)CCC1O (stereo not drawn) [Compound 35]	> 9.52	> 8.00	< 6.10	< 6.10	< 9.10	A (A ≤20% inhibition at 1 micro Molar (uM))
COC1CC(CC(C)C2CC(=O)C(C)C=C(C)C(O)C(OC)C(=O)C(C)CC(C)C=CC=CC=C(C)C(OC3CCOCC3)CC3CCC(C)C(O)(O3)C(=O)C(=O)N3CCCCC3C(=O)O2)CCC1O (stereo not drawn) [Compound 33]	> 9.52	7.00 to 8.00	< 6.10	< 6.10	< 9.10	A (A ≤20% inhibition at 1 micro Molar (uM))
COCCOCCOCCOC1CC2CCC(C)C(O)(O2)C(=O)C(=O)N2CCCCC2C(=O)OC(C(C)CC2CCC(OCCCS(C)(=O)=O)C(OC)C2)CC(=O)C(C)C=C(C)C(O)C(OC)C(=O)C(C)CC(C)C=CC=CC=C1C (mixture of isomers) [Compound 66]	9.00 to 9.52	7.00 to 8.00	< 6.10	< 6.10	9.10 to 10.00	A (A ≤20% inhibition at 1 micro Molar (uM))
COCCO[C@H]1C[C@@H]2CC[C@@H](C)[C@@](O)(O2)C(=O)C(=O)N2CCCC[C@H]2C(=O)O[C@H]([C@H](C)C[C@@H]2CC[C@@H](OCCCS(C)(=O)=O)[C@H](OC)C2)CC(=O)[C@H](C)/C=C(\C)[C@@H](O)[C@@H](OC)C(=O)[C@H](C)C[C@H](C)/C=C/C=C/C=C/1C [Compound 61]	> 9.52	< 7.00	> 6.52	< 6.10	> 10.00	B (B>20% and less than 40% inhibition at 1 uM)
CCOC(=O)COC1CCC(CC(C)C2CC(=O)C(C)C=C(C)C(O)C(OC)C(=O)C(C)CC(C)C=CC=CC=C(C)C(OC3CC3)CC3CCC(C)C(O)(O3)C(=O)C(=O)N3CCCCC3C(=O)O2)CC1OC (stereo not drawn) [Compound 48]	< 9.00	< 7.00	6.10 to 6.52	< 6.10	< 9.10	A (A ≤20% inhibition at 1 micro Molar (uM))
COCCS(=O)(=O)NC1CC2CCC(C)C(O)(O2)C(=O)C(=O)N2CCCCC2C(=O)OC(C(C)CC2CCC(OCCCO)C(OC)C2)CC(=O)C(C)C=C(C)C(O)C(OC)C(=O)C(C)CC(C)C=CC=CC=C1C (mixture of isomers) [Compound 13]	> 9.52	7.00 to 8.00	6.10 to 6.52	< 6.10	9.10 to 10.00	A (A ≤20% inhibition at 1 micro Molar (uM))
CO[C@@H]1C[C@H](C[C@@H](C)[C@@H]2CC(=O)[C@H](C)/C=C(\C)[C@@H](O)[C@@H](OC)C(=O)[C@H](C)C[C@H](C)/C=C/C=C/C=C(\C)[C@H](OCCCO)C[C@@H]3CC[C@@H](C)[C@@](O)(O3)C(=O)C(=O)N3CCCC[C@H]3C(=O)O2)CC[C@H]1OCCCS(C)(=O)=O [Compound 69]	9.00 to 9.52	7.00 to 8.00	6.10 to 6.52	< 6.10	9.10 to 10.00	B (B>20% and less than 40% inhibition at 1 uM)
